From patent US10144742B2 (Millennium Pharmaceuticals, Inc., priority 2014, dated 2018)
Read-outs that look alike come from different tables or passages of the source.

Experiments:
PC3 cells = assay: PC3 growth inhibition (Cell-titer glo, 72 hours); type: cell-based; conditions: Homo sapiens, PC-3, PC3 cells, 72 hours, Cell-titer glo, read-out: Percent Inhibition (PC3 growth inhibition); for inhibition at 1 µM: compound concentration 1 μM; for inhibition at 1.667 µM: compound concentration 1.667 μM
How it was run: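 PC3 cells in RPMI1640 seeded overnight at 37 °C, 5% CO2, then exposed to compound diluted in AIM serum-free medium for 72 h. Viability by CellTiter-Glo luminescence vs DMSO controls; single-concentration % remaining viability (1 μM or 1.667 μM), or GI50/LD50 from curves.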

hNAMPT protein = hNAMPT protein (Homo sapiens (Human), UniProt P43490); assay: NAMPT enzyme assay (TR-FRET/HTRF, BodiPY ligand, anti 6His-Tb); type: binding; conditions: for IC50: read-out: IC50; for inhibition at 1 µM: read-out: Percent Inhibition
hNAMPT protein, sequence (P43490 whole entry): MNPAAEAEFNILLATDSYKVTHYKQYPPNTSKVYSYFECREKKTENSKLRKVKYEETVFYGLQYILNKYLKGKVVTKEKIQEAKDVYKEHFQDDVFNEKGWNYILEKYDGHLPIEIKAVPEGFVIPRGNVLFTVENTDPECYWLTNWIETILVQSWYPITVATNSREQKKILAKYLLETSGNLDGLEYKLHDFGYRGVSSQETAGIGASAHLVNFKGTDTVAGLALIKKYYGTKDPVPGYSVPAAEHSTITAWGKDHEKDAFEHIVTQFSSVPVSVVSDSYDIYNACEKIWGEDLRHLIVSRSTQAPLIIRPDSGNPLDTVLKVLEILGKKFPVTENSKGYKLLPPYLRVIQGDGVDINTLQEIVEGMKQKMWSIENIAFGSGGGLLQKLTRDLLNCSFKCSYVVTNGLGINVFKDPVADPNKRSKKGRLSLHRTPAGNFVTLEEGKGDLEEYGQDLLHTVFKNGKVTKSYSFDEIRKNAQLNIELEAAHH
How it was run: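 TR-FRET binding assay in which His-tagged human NAMPT with anti-6His-Tb is displaced by compound from a BodiPY ligand, incubated 1 h at rt in the dark. Excitation was at 320 nm, with the 520/486 nm emission ratio read. IC50 was fitted from inhibition relative to DMSO controls.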

[1] = NAMPT inhibition at compound concentration 1 μM
[2] = NAMPT inhibition, IC50 range class

| Compound | inhibition at 1 µM (PC3 cells) [%] | IC50 (hNAMPT protein; NAMPT IC50 range class) [nM] | inhibition at 1 µM (hNAMPT protein; compound concentration 1 μM) [%] | inhibition at 1.667 µM (PC3 cells) [%] | inhibition at 1 µM (hNAMPT protein; [1]) [%] | IC50 (hNAMPT protein; [2]) [nM] |
| --- | --- | --- | --- | --- | --- | --- |
| O=C(NCCCn1ccnc1)c1ccc2nc(N3CCN4C(=O)CCC4C3)c(-c3ccccc3)nc2c1 (stereo not drawn) [Compound I-250, N-[3-(1H-imidazol-1-yl)propyl]-2-(6-oxohexahydropyrrolo[1,2-a]pyrazin-2(1H)-yl)-3-phenylquinoxaline-6-carboxamide] | -6 | 100 to 500 | 86 |  |  |  |
| COC1CN(c2nc3ccc(C(=O)NCCCc4ncc[nH]4)cc3nc2-c2ccc(F)cc2)C1 [Compound I-172, 3-(4-fluorophenyl)-N-[3-(1H-imidazol-2-yl)propyl]-2-(3-methoxyazetidin-1-yl)quinoxaline-6-carboxamide] |  | < 100 | > 99 | 2 |  |  |
| COc1cccc(-c2nc3ccc(C(=O)NCCc4cccnc4)cc3nc2-c2cccc(OC)c2)c1 [Compound I-181, 2,3-bis(3-methoxyphenyl)-N-[2-(pyridin-3-yl)ethyl]quinoxaline-6-carboxamide] | 0 | < 100 | 100 |  |  |  |
| CN1CCCC(Oc2nc3ccc(C(=O)NCCCc4ncc[nH]4)cc3nc2-c2ccc(F)cc2)C1 (stereo not drawn) [Compound I-423, 3-(4-fluorophenyl)-N-[3-(1H-imidazol-2-yl)propyl]-2-[(1-methylpiperidin-3-yl)oxy]quinoxaline-6-carboxamide] |  |  |  | 2 | 88 | 100 to 500 |
| CS(=O)(=O)N1CCN(c2nc3ccc(C(=O)NCCCn4ccnc4)cc3nc2-c2ccccc2)CC1 [Compound I-125, N-[3-(1H-imidazol-1-yl)propyl]-2-[4-(methylsulfonyl)piperazin-1-yl]-3-phenylquinoxaline-6-carboxamide] | -7 | 100 to 500 | 73 |  |  |  |
| O=C(NCCCn1ccnc1)c1ccc2nc(-c3ccccc3)c(N3CCC4(COC4)C3)nc2c1 [Compound I-15, N-[3-(1H-imidazol-1-yl)propyl]-3-(2-oxa-6-azaspiro[3.4]oct-6-yl)-2-phenylquinoxaline-6-carboxamide] | -6 | 2000 to 10000 | 15 |  |  |  |
| O=C(NCCCc1ncc[nH]1)c1ccc2nc(-c3ccc(F)cc3)c(-c3cc(C(F)(F)F)ccc3F)nc2c1 [Compound I-451, 2-(4-fluorophenyl)-3-[2-fluoro-5-(trifluoromethyl)phenyl]-N-[3-(1H-imidazol-2-yl)propyl]quinoxaline-6-carboxamide] |  |  |  | 2 | 97 | < 100 |
| O=C(NCCCn1ccnc1)c1ccc2nc(-c3cccnc3)c(-c3ccccc3)nc2c1 [Compound I-201, N-[3-(1H-imidazol-1-yl)propyl]-3-phenyl-2-(pyridin-3-yl)quinoxaline-6-carboxamide] | -7 | 500 to 1000 | 62 |  |  |  |
| O=C(NCCCc1nccs1)c1ccc2nc(N3CCC(N4CCOCC4)CC3)c(-c3ccc(F)cc3)nc2c1 [Compound I-42, 3-(4-fluorophenyl)-2-[4-(morpholin-4-yl)piperidin-1-yl]-N-[3-(1,3-thiazol-2-yl)propyl]quinoxaline-6-carboxamide] |  | < 100 | 96 | > 99 |  |  |
| O=C(NCCCc1ncc[nH]1)c1ccc2nc(Cc3ccc(Cl)cc3)c(-c3ccc(F)cc3)nc2c1 [Compound I-476] |  |  |  | 3 | 88 | 100 to 500 |
| COc1ccc(-c2nc3cc(C(=O)NCCCc4ncc[nH]4)ccc3nc2-c2ccc(F)cc2)cc1 [Compound I-448, 2-(4-fluorophenyl)-N-[3-(1H-imidazol-2-yl)propyl]-3-(4-methoxyphenyl)quinoxaline-6-carboxamide] |  |  |  | 2 | 67 | 100 to 500 |
| CC(C)Oc1nc2ccc(C(=O)NCCCc3ncc[nH]3)cc2nc1-c1ccc(Cl)cc1 [Compound I-222, 3-(4-chlorophenyl)-N-[3-(1H-imidazol-2-yl)propyl]-2-isopropoxyquinoxaline-6-carboxamide] |  | < 100 | 92 | 12 |  |  |
| Cc1cc(C)cc(-c2nc3cc(C(=O)NCCCc4ncc[nH]4)ccc3nc2-c2ccc(F)cc2)c1 [Compound I-335, 3-(3,5-dimethylphenyl)-2-(4-fluorophenyl)-N-[3-(1H-imidazol-2-yl)propyl]quinoxaline-6-carboxamide] |  | 100 to 500 | 85 | 2 |  |  |
| N#Cc1ccc(-c2nc3ccc(C(=O)NCCCn4ccnc4)cc3nc2-c2ccccc2)cc1 [Compound I-131, 2-(4-cyanophenyl)-N-[3-(1H-imidazol-1-yl)propyl]-3-phenylquinoxaline-6-carboxamide] | -8 | 500 to 1000 | 64 |  |  |  |
| O=C(NCCCc1ncc[nH]1)c1ccc2nc(-c3ccc(F)cc3)c(-c3cn[nH]c3)nc2c1 [Compound I-429, 2-(4-fluorophenyl)-N-[3-(1H-imidazol-2-yl)propyl]-3-(1H-pyrazol-4-yl)quinoxaline-6-carboxamide] |  |  |  | 76 | 90 | 100 to 500 |
| Cn1ccc(COc2nc3ccc(C(=O)NCCCc4ncc[nH]4)cc3nc2-c2ccc(F)cc2)n1 [Compound I-460, 3-(4-fluorophenyl)-N-[3-(1H-imidazol-2-yl)propyl]-2-[(1-methyl-1H-pyrazol-3-yl)methoxy]quinoxaline-6-carboxamide] |  |  |  | 2 | 99 | < 100 |
| Cn1cncc1CCNC(=O)c1ccc2nc(N3CCCCC3)c(-c3ccc(F)cc3)nc2c1 [Compound I-4, 3-(4-fluorophenyl)-N-[2-(1-methyl-1H-imidazol-5-yl)ethyl]-2-(piperidin-1-yl)quinoxaline-6-carboxamide] |  | < 100 | 93 | 2 |  |  |
| O=C(NCCCn1ccnc1)c1ccc2nc(C3=CCCC3)c(-c3ccccc3)nc2c1 [Compound I-230, 2-(cyclopent-1-en-1-yl)-N-[3-(1H-imidazol-1-yl)propyl]-3-phenylquinoxaline-6-carboxamide] | -7 | 500 to 1000 | 62 |  |  |  |
| Cc1nn(C)cc1-c1nc2cc(C(=O)NCCCc3ncc[nH]3)ccc2nc1-c1ccc(F)cc1 [Compound I-475, 3-(1,3-dimethyl-1H-pyrazol-4-yl)-2-(4-fluorophenyl)-N-[3-(1H-imidazol-2-yl)propyl]quinoxaline-6-carboxamide] |  |  |  | 3 | 77 | 100 to 500 |
| COc1ccc(F)c(-c2nc3cc(C(=O)NCCCc4ncc[nH]4)ccc3nc2-c2ccc(F)cc2)c1 [Compound I-481, 3-(2-fluoro-5-methoxyphenyl)-2-(4-fluorophenyl)-N-[3-(1H-imidazol-2-yl)propyl]quinoxaline-6-carboxamide] |  |  |  | 2 | 98 | < 100 |
| CCOc1cc(-c2nc3cc(C(=O)NCCCc4ncc[nH]4)ccc3nc2-c2ccc(F)cc2)ccc1F [Compound I-355, 3-(3-ethoxy-4-fluorophenyl)-2-(4-fluorophenyl)-N-[3-(1H-imidazol-2-yl)propyl]quinoxaline-6-carboxamide] |  | < 100 | > 99 | 2 |  |  |
| Nc1ccc(-c2nc3cc(C(=O)NCCCc4ncc[nH]4)ccc3nc2-c2ccc(F)cc2)cc1 [Compound I-479, 3-(4-aminophenyl)-2-(4-fluorophenyl)-N-[3-(1H-imidazol-2-yl)propyl]quinoxaline-6-carboxamide] |  |  |  | 3 | 75 | 100 to 500 |
| O=C(NCCCc1ncc[nH]1)c1ccc2nc(OCCc3ccccc3)c(-c3ccc(F)cc3)nc2c1 [Compound I-420, 3-(4-fluorophenyl)-N-[3-(1H-imidazol-2-yl)propyl]-2-(2-phenylethoxy)quinoxaline-6-carboxamide] |  |  |  | 2 | 97 | < 100 |
| Cn1cccc1-c1nc2ccc(C(=O)NCCCn3ccnc3)cc2nc1-c1ccccc1 [Compound I-179, N-[3-(1H-imidazol-1-yl)propyl]-2-(1-methyl-1H-pyrrol-2-yl)-3-phenylquinoxaline-6-carboxamide] | -7 | 500 to 1000 | 57 |  |  |  |
| COc1cccc(-c2nc3cc(C(=O)NCCCc4ncc[nH]4)ccc3nc2OC(C)C)c1 [Compound I-511, N-[3-(1H-imidazol-2-yl)propyl]-2-isopropoxy-3-(3-methoxyphenyl)quinoxaline-6-carboxamide] |  |  |  | 2 | > 99 | < 100 |
| O=C(NCCCc1ncc[nH]1)c1ccc2nc(OCc3cccnc3)c(-c3ccc(F)cc3)nc2c1 [Compound I-409, 3-(4-fluorophenyl)-N-[3-(1H-imidazol-2-yl)propyl]-2-(pyridin-3-ylmethoxy)quinoxaline-6-carboxamide] |  |  |  | 2 | 98 | < 100 |
| O=C(NCCCc1ncc[nH]1)c1ccc2nc(OCC3CC3)c(-c3ccc(F)cc3)nc2c1 [Compound I-490, 2-(cyclopropylmethoxy)-3-(4-fluorophenyl)-N-[3-(1H-imidazol-2-yl)propyl]quinoxaline-6-carboxamide] |  |  |  | 2 | 95 | < 100 |
